In PubChem BioAssay AID2060603 (Molecular Pharmacology Branch, DTP, NCI, 2025):
“And” between values parts separate entries of the source, which are not always exact repeats. Identical values can stand only once. Blank lines part the entries; values can stand above or below the compound they belong to.

Tested on: 422866-222-R5-J1-PDC spheroid viability
Assay: Anticancer human tumor 422866-222-R5-J1-PDC patient-derived pancreatic adenocarcinoma cell line growth inhibition [CLK]
Conditions: spheroids with HUVEC and MSC; for viability, T/C: stronger effect = lower value
Summary of the method: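 Multi-cell-type spheroids combined patient-derived tumor cells with HUVEC endothelial cells and human mesenchymal stem cells. Paired agents were dosed in half-log steps down from about clinical Cmax, or from 10 microM where Cmax was unknown.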

[1] = curve of first compound, second compound 0.0316 µM
[2] = curve of first compound, second compound 0.1 µM
[3] = curve of first compound, second compound 0.316 µM
[4] = curve of first compound, second compound 1 µM
[5] = curve of first compound, second compound 3.16 µM
[6] = curve of first compound, second compound 10 µM
[7] = second compound 0.0316 µM, first compound 0.0316 µM
[8] = second compound 0.0316 µM, first compound 0.1 µM
[9] = second compound 0.0316 µM, first compound 0.316 µM
[10] = second compound 0.0316 µM, first compound 1 µM
[11] = second compound 0.0316 µM, first compound 3.16 µM
[12] = second compound 0.0316 µM, first compound 10 µM
[13] = second compound 0.1 µM, first compound 0.0316 µM
[14] = second compound 0.1 µM, first compound 0.1 µM
[15] = second compound 0.1 µM, first compound 0.316 µM
[16] = second compound 0.1 µM, first compound 1 µM
[17] = second compound 0.1 µM, first compound 3.16 µM
[18] = second compound 0.1 µM, first compound 10 µM
[19] = second compound 0.316 µM, first compound 0.0316 µM
[20] = second compound 0.316 µM, first compound 0.1 µM
[21] = second compound 0.316 µM, first compound 0.316 µM
[22] = second compound 0.316 µM, first compound 1 µM
[23] = second compound 0.316 µM, first compound 3.16 µM
[24] = second compound 0.316 µM, first compound 10 µM
[25] = second compound 1 µM, first compound 0.0316 µM
[26] = second compound 1 µM, first compound 0.1 µM
[27] = second compound 1 µM, first compound 0.316 µM
[28] = second compound 1 µM, first compound 1 µM
[29] = second compound 1 µM, first compound 3.16 µM
[30] = second compound 1 µM, first compound 10 µM
[31] = second compound 3.16 µM, first compound 0.0316 µM
[32] = second compound 3.16 µM, first compound 0.1 µM
[33] = second compound 3.16 µM, first compound 0.316 µM
[34] = second compound 3.16 µM, first compound 1 µM
[35] = second compound 3.16 µM, first compound 3.16 µM
[36] = second compound 3.16 µM, first compound 10 µM
[37] = second compound 10 µM, first compound 0.0316 µM
[38] = second compound 10 µM, first compound 0.1 µM
[39] = second compound 10 µM, first compound 0.316 µM
[40] = second compound 10 µM, first compound 1 µM
[41] = second compound 10 µM, first compound 3.16 µM
[42] = second compound 10 µM, first compound 10 µM
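Also: spheroids exposed to agents for seven days before readout.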

IC50 (curve of compound): > 10000 nM
Compound: O=c1[nH]cc(F)c(=O)[nH]1
viability, T/C (compound 0.0316 µM): 101% and 102% | viability, T/C (compound 0.1 µM): 95.5% and 95.8% | viability, T/C (compound 0.316 µM): 91.1% and 85.6% | viability, T/C (compound 1 µM): 98% and 85.2% | viability, T/C (compound 3.16 µM): 65.5% and 77.1% | viability, T/C (compound 10 µM): 90.2% and 74.7%

IC50 (curve of compound): 215 nM and 113 nM
Compound: COc1cccc2c1C(=O)c1c(O)c3c(c(O)c1C2=O)CC(O)(C(=O)CO)CC3OC1CC(N)C(O)C(C)O1 (centres undefined)
viability, T/C (compound 0.0316 µM): 57.2% and 67.1% | viability, T/C (compound 0.1 µM): 65.7% and 52.3% | viability, T/C (compound 0.316 µM): 44.2% and 30.3% | viability, T/C (compound 1 µM): 32.1% and 27% | viability, T/C (compound 3.16 µM): 28.3% and 26.7% | viability, T/C (compound 10 µM): 30.9% and 26%

The remaining lines, values behind:

Compound: CN1CCN(c2cc(C(=O)Nc3cc4cc(-c5cnn(C)c5)ccc4cn3)ccn2)CC1
viability, T/C (compound 1 µM): 25.8% [middle of 12 runs] | viability, T/C (compound 3.16 µM): 11% [middle of 12 runs] | viability, T/C (compound 10 µM): 2.14% [middle of 12 runs] | IC50 (compound alone, run of 08/14/2023): 650 nM [middle of 12 runs]

Compound: COC1C=CCC(C)C(C)S(=O)(=O)NC(=O)c2ccc3c(c2)N(CC2CCC21)CC1(CCCc2cc(Cl)ccc21)CO3 (centres undefined) + CN1CCN(c2cc(C(=O)Nc3cc4cc(-c5cnn(C)c5)ccc4cn3)ccn2)CC1
IC50 [1]: > 10000 nM | IC50 [2]: > 10000 nM | IC50 [3]: > 10000 nM | IC50 [4]: < 31.6 nM | IC50 [5]: < 31.6 nM | IC50 [6]: < 31.6 nM | viability, T/C [7]: 102% | viability, T/C [8]: 102% | viability, T/C [9]: 113% | viability, T/C [10]: 98.1% | viability, T/C [11]: 97% | viability, T/C [12]: 76.8% | viability, T/C [13]: 131% | viability, T/C [14]: 104% | viability, T/C [15]: 105% | viability, T/C [16]: 107% | viability, T/C [17]: 114% | viability, T/C [18]: 94.7% | viability, T/C [19]: 103% | viability, T/C [20]: 92.8% | viability, T/C [21]: 104% | viability, T/C [22]: 99% | viability, T/C [23]: 113% | viability, T/C [24]: 105% | viability, T/C [25]: 29.4% | viability, T/C [26]: 28.8% | viability, T/C [27]: 38.5% | viability, T/C [28]: 28.9% | viability, T/C [29]: 38.7% | viability, T/C [30]: 39.2% | viability, T/C [31]: 8.76% | viability, T/C [32]: 9.13% | viability, T/C [33]: 9.74% | viability, T/C [34]: 7.9% | viability, T/C [35]: 9.36% | viability, T/C [36]: 5.17% | viability, T/C [37]: 2.4% | viability, T/C [38]: 1.91% | viability, T/C [39]: 1.69% | viability, T/C [40]: 1.81% | viability, T/C [41]: 2.33% | viability, T/C [42]: 3.52%

Compound: CC1(C)CCC(CN2CCN(c3ccc(C(=O)NS(=O)(=O)c4ccc(NCC5CCOCC5)c([N+](=O)[O-])c4)c(Oc4cnc5[nH]ccc5c4)c3)CC2)=C(c2ccc(Cl)cc2)C1 + CN1CCN(c2cc(C(=O)Nc3cc4cc(-c5cnn(C)c5)ccc4cn3)ccn2)CC1
IC50 [1]: > 10000 nM | IC50 [2]: > 10000 nM | IC50 [3]: 7960 nM | IC50 [4]: < 31.6 nM | IC50 [5]: < 31.6 nM | IC50 [6]: < 31.6 nM | viability, T/C [7]: 105% | viability, T/C [8]: 104% | viability, T/C [9]: 101% | viability, T/C [10]: 115% | viability, T/C [11]: 113% | viability, T/C [12]: 69.3% | viability, T/C [13]: 111% | viability, T/C [14]: 117% | viability, T/C [15]: 105% | viability, T/C [16]: 109% | viability, T/C [17]: 95.8% | viability, T/C [18]: 58.3% | viability, T/C [19]: 89.2% | viability, T/C [20]: 107% | viability, T/C [21]: 96.5% | viability, T/C [22]: 91.2% | viability, T/C [23]: 91.9% | viability, T/C [24]: 39.6% | viability, T/C [25]: 26.1% | viability, T/C [26]: 26.1% | viability, T/C [27]: 22.1% | viability, T/C [28]: 27.5% | viability, T/C [29]: 25.1% | viability, T/C [30]: 12.1% | viability, T/C [31]: 11.2% | viability, T/C [32]: 10.1% | viability, T/C [33]: 8.93% | viability, T/C [34]: 9.29% | viability, T/C [35]: 8.57% | viability, T/C [36]: 0.67% | viability, T/C [37]: 3.46% | viability, T/C [38]: 3.09% | viability, T/C [39]: 2.86% | viability, T/C [40]: 1.74% | viability, T/C [41]: 2.12% | viability, T/C [42]: 1.57%

Compound: CCCS(=O)(=O)Nc1ccc(F)c(C(=O)c2c[nH]c3ncc(-c4ccc(Cl)cc4)cc23)c1F + CN1CCN(c2cc(C(=O)Nc3cc4cc(-c5cnn(C)c5)ccc4cn3)ccn2)CC1
IC50 [1]: > 10000 nM | IC50 [2]: > 10000 nM | IC50 [3]: > 10000 nM | IC50 [4]: < 31.6 nM | IC50 [5]: < 31.6 nM | IC50 [6]: < 31.6 nM | viability, T/C [7]: 111% | viability, T/C [8]: 113% | viability, T/C [9]: 136% | viability, T/C [10]: 161% | viability, T/C [11]: 179% | viability, T/C [12]: 150% | viability, T/C [13]: 108% | viability, T/C [14]: 124% | viability, T/C [15]: 137% | viability, T/C [16]: 134% | viability, T/C [17]: 168% | viability, T/C [18]: 138% | viability, T/C [19]: 95.9% | viability, T/C [20]: 102% | viability, T/C [21]: 98% | viability, T/C [22]: 109% | viability, T/C [23]: 133% | viability, T/C [24]: 99.5% | viability, T/C [25]: 31.4% | viability, T/C [26]: 30.9% | viability, T/C [27]: 32% | viability, T/C [28]: 27.8% | viability, T/C [29]: 31.4% | viability, T/C [30]: 23.5% | viability, T/C [31]: 8.19% | viability, T/C [32]: 9.62% | viability, T/C [33]: 11.2% | viability, T/C [34]: 12.2% | viability, T/C [35]: 16.5% | viability, T/C [36]: 16.1% | viability, T/C [37]: 1.72% | viability, T/C [38]: 2.24% | viability, T/C [39]: 2.24% | viability, T/C [40]: 2.75% | viability, T/C [41]: 2.94% | viability, T/C [42]: 0.92%
